These results are taken from ChEMBL document CHEMBL1201862, “PubChem BioAssay data set” (2004).

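Grown in 96-well plates, cells were treated for 48 hours with each compound at five concentrations. Insufficient inhibition: endpoint recorded as highest concentration tested. At the GI50, growth is halved.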 Calls of active or inactive are those of the source. No stated cut-off is given here; in the data, active = GI50 up to about 1.1 µM and inactive = higher. Where a SMILES comes first, the peptide text is derived from it. The star is where a group is joined. OSu = O=C1CCC(=O)N1O*; OBn = c1ccc(CO*)cc1; Bn = c1ccc(C*)cc1

Test systems include HCT-116; HOP-62; HT-29; IGROV-1; LOX IMVI; M14; MDA-MB-231; NCI-H226; RXF 393; SF-268; SF-295; SK-MEL-28; SK-MEL-2; SR; SW-620; U-251; A498; HOP-92; OVCAR-8.
Experiment in all cases: DTP human tumour cell line panel, 48 h

A word on the GI50: it is the concentration that inhibits growth by half. For `CCOC(OCC)[C@@H]1C[C@@H]2N(O[C@H](OC3CCCC3(c3ccccc3)c3ccccc3)[C@H](OC(C)=O)[C@@]2(CC)Cc2ccc(OC)c(OC)c2)O1` (stereo not given in full), the GI50 with HCT-116, in the experiment with HOP-62, in the experiment on HT-29, in the experiment on IGROV-1, in the experiment with LOX IMVI and in the experiment on M14 was > 100 µM (inactive) in each case. For the same compound, the GI50 in the experiment with MDA-MB-231, in the experiment on NCI-H226, in the experiment with RXF 393, with SF-268, with SF-295 and with SK-MEL-28 was > 100 µM (inactive) in each case. Further, the GI50 in the experiment on SK-MEL-2 was > 100 µM (inactive); in the experiment on SR it was 84.7 µM (inactive); in the experiment on SW-620, > 100 µM (inactive); in the experiment with U-251, > 100 µM (inactive).

`CC(C)(C)OC(=O)NCC(=O)N1CCCN(C(=O)CNC(=O)OC(C)(C)C)CC1`: the GI50 in the experiment on A498, with HCT-116, with HOP-62, with HOP-92, in the experiment on HT-29 and with IGROV-1 was > 100 µM (inactive) in each case. The GI50 in the experiment with LOX IMVI, in the experiment on M14, in the experiment with MDA-MB-231, with NCI-H226, in the experiment with OVCAR-8 and in the experiment on RXF 393 was > 100 µM (inactive) in each case. The GI50 with SF-268, with SF-295, in the experiment on SK-MEL-28, in the experiment on SK-MEL-2, with SW-620 and in the experiment with U-251 was > 100 µM (inactive) throughout.

Take `CCOC(=O)CCC(NC(=O)c1ccc(NCc2ccc3nc(OC)c(OC)nc3c2)c2ccccc12)C(=O)OCC` (stereo not given): the GI50 with A498 was 61.8 µM (inactive); with HCT-116 it was > 100 µM (inactive); in the experiment on HOP-62, 25.9 µM (inactive); with HOP-92 it was 16.2 µM (inactive); with HT-29 it was > 100 µM (inactive); in the experiment with IGROV-1, 31.8 µM (inactive). In addition, the GI50 was > 100 µM (inactive) in the experiment on LOX IMVI; > 100 µM (inactive) in the experiment with M14; 71.1 µM (inactive) in the experiment on MDA-MB-231; > 100 µM (inactive) in the experiment on NCI-H226; 57.5 µM (inactive) in the experiment on OVCAR-8; 31 µM (inactive) with RXF 393. Further, the GI50 was 42.7 µM (inactive) in the experiment on SF-268; 36.2 µM (inactive) in the experiment on SF-295; > 100 µM (inactive) in the experiment with SK-MEL-28; > 100 µM (inactive) in the experiment on SK-MEL-2; > 100 µM (inactive) in the experiment on SW-620; 40.5 µM (inactive) with U-251.

For `COC(=O)Nc1nc2cc(NC(=O)c3cccs3)ccc2[nH]1`, the GI50 in the experiment on A498 was 11.2 µM (inactive); in the experiment on HCT-116, 34.4 µM (inactive); with HOP-62, 84.9 µM (inactive); in the experiment with HOP-92, 1.53 µM (inactive); in the experiment with HT-29, 33 µM (inactive); in the experiment with IGROV-1, 0.296 µM (active). Moreover, the GI50 is 25.9 µM (inactive) with LOX IMVI; 33.7 µM (inactive) in the experiment on M14; 62.1 µM (inactive) in the experiment on MDA-MB-231; > 100 µM (inactive) in the experiment with NCI-H226; 68.7 µM (inactive) with OVCAR-8; 22.8 µM (inactive) in the experiment on RXF 393. In addition, the GI50 in the experiment on SF-268 is 75.3 µM (inactive); in the experiment with SF-295, 29.6 µM (inactive); with SK-MEL-28, 38.5 µM (inactive); in the experiment on SK-MEL-2, 24.9 µM (inactive); in the experiment on SW-620 it was 27.5 µM (inactive); in the experiment with U-251, 34.2 µM (inactive).

For `Cc1ccccc1C(=O)C#Cc1cn(C2CC(O)C(CO)O2)c(=O)[nH]c1=O` (stereo not given), the GI50 is > 100 µM (inactive) with HCT-116; > 100 µM (inactive) in the experiment with HOP-62; 74.1 µM (inactive) in the experiment on HOP-92; > 100 µM (inactive) with HT-29; > 100 µM (inactive) in the experiment with IGROV-1; > 100 µM (inactive) in the experiment with M14. The GI50 with MDA-MB-231, in the experiment on NCI-H226, in the experiment on OVCAR-8, in the experiment with RXF 393, in the experiment with SF-268 and with SF-295 was > 100 µM (inactive) throughout. Further, the GI50 with SK-MEL-28 was > 100 µM (inactive); in the experiment on SK-MEL-2, > 100 µM (inactive); in the experiment on SR, 27.9 µM (inactive); in the experiment on SW-620, > 100 µM (inactive); in the experiment with U-251, > 100 µM (inactive).

Consider `O=C1C(=Cc2cccc(Cl)c2)N=C(c2ccccc2)N1n1c(-c2ccccc2)nc2ccccc2c1=O`, for which the GI50 is 10.8 µM (inactive) in the experiment with HCT-116; 34.8 µM (inactive) in the experiment with HOP-62; 27 µM (inactive) with HOP-92; 37.2 µM (inactive) with HT-29; 35.2 µM (inactive) in the experiment with IGROV-1; 31.3 µM (inactive) with LOX IMVI. For the same compound, the GI50 was 22.7 µM (inactive) with M14; 50 µM (inactive) in the experiment with MDA-MB-231; 63.4 µM (inactive) in the experiment with NCI-H226; 28.7 µM (inactive) in the experiment with OVCAR-8; 33.5 µM (inactive) in the experiment on RXF 393; 32.4 µM (inactive) in the experiment with SF-268. Moreover, the GI50 in the experiment on SF-295 is 39 µM (inactive); in the experiment with SK-MEL-28 it was 50.2 µM (inactive); with SK-MEL-2, 26.2 µM (inactive); in the experiment on SR, 37 µM (inactive); in the experiment on SW-620, 45.3 µM (inactive); in the experiment on U-251, 28 µM (inactive).

For the compound `O=C(O)c1ccccc1/C=N\N(CCO)C1=NCCN1`, the GI50 in the experiment on HCT-116, in the experiment with HOP-62, in the experiment on HOP-92, in the experiment on HT-29, with IGROV-1 and in the experiment on LOX IMVI was > 100 µM (inactive) each time. In addition, the GI50 in the experiment with M14, with MDA-MB-231, with NCI-H226, in the experiment with OVCAR-8, with RXF 393 and in the experiment on SF-268 was > 100 µM (inactive) in each case. The GI50 with SF-295, in the experiment on SK-MEL-28, with SK-MEL-2, in the experiment on SR, with SW-620 and in the experiment with U-251 was > 100 µM (inactive) throughout.

Take `CC(C)c1cc(C(C)C)c(Cl)c(Cl)c1O.CC(C)c1cc(Cl)c(O)c(C(C)C)c1Cl`: the GI50 with HCT-116 is 76.7 µM (inactive); in the experiment with HOP-62, 32.7 µM (inactive); with HOP-92, 10.5 µM (inactive); in the experiment on HT-29, 24 µM (inactive); with IGROV-1, 21.6 µM (inactive); with LOX IMVI it was 32.3 µM (inactive). Moreover, the GI50 is 71.8 µM (inactive) in the experiment on M14; 20.1 µM (inactive) in the experiment with MDA-MB-231; 26.7 µM (inactive) with OVCAR-8; 12.5 µM (inactive) with RXF 393; 18.8 µM (inactive) in the experiment with SF-268; 18.7 µM (inactive) in the experiment with SF-295. Further, the GI50 is 24.1 µM (inactive) with SK-MEL-28; 18.5 µM (inactive) in the experiment with SK-MEL-2; 9.25 µM (inactive) with SR; 25.8 µM (inactive) in the experiment with SW-620; 34.7 µM (inactive) in the experiment with U-251.

Turning to `COC1CC(OC2C(C)OC(OC3C(C)OC(OC4C(O)CC(O[C@H]5CC[C@@]6(C)C(=CC[C@]7(O)[C@@H]6C[C@@H](OC(C)=O)[C@@]6(C)[C@]7(O)CC[C@@]6(O)C(C)=O)C5)OC4C)CC3OC)CC2OC)OC(C)C1O` (stereo not given in full), the GI50 in the experiment on HCT-116, in the experiment on HOP-62, in the experiment on HOP-92, with HT-29, in the experiment on IGROV-1 and in the experiment with LOX IMVI was > 12.5 µM (inactive) each time. The GI50 in the experiment on M14, in the experiment on MDA-MB-231, in the experiment with NCI-H226, in the experiment on OVCAR-8, in the experiment with SF-268 and with SF-295 was > 12.5 µM (inactive) in each case. For the same compound, the GI50 with SK-MEL-2, with SR, in the experiment with SW-620 and with U-251 was > 12.5 µM (inactive) in each case.

Regarding `C[C@H](NC(=O)CNC(=O)CCCCCC(=O)NCC(=O)N[C@@H](C)C(=O)OCc1ccccc1)C(=O)OCc1ccccc1`, the GI50 in the experiment on HCT-116, with HOP-62, in the experiment on HOP-92, with HT-29, with IGROV-1 and with LOX IMVI was > 100 µM (inactive) each time. Further, the GI50 in the experiment with M14, in the experiment on MDA-MB-231, in the experiment with NCI-H226, in the experiment on OVCAR-8, in the experiment on RXF 393 and in the experiment with SF-268 was > 100 µM (inactive) throughout. Moreover, the GI50 in the experiment on SF-295, in the experiment with SK-MEL-28, with SK-MEL-2, in the experiment on SR, in the experiment on SW-620 and in the experiment with U-251 was > 100 µM (inactive) throughout.

As to `CC(C)CC(NC(=O)C(N)CCC(=O)OCc1ccccc1)C(=O)NC(COCc1ccccc1)C(=O)NC(Cc1ccccc1)C(=O)ON1C(=O)CCC1=O` (stereo not given) (H-E(OBn)LS(Bn)F-OSu; configuration not given here), the GI50 with HCT-116 is 16.4 µM (inactive); in the experiment on HOP-92, 15 µM (inactive); with HT-29 it was 38.2 µM (inactive); in the experiment with IGROV-1, 23.4 µM (inactive); with LOX IMVI, 18.2 µM (inactive); with M14, 33.4 µM (inactive). In addition, the GI50 in the experiment on MDA-MB-231 was 18.1 µM (inactive); in the experiment with OVCAR-8 it was 31.6 µM (inactive); with RXF 393 it was 21.8 µM (inactive); in the experiment on SF-268 it was 48.3 µM (inactive); with SF-295, 24.4 µM (inactive); with SK-MEL-28, 22.1 µM (inactive). For the same compound, the GI50 with SK-MEL-2 is 30.8 µM (inactive); in the experiment with SR it was 28.6 µM (inactive); in the experiment on SW-620 it was 37.8 µM (inactive); with U-251, 24.4 µM (inactive).
